Measurements taken from patent publication US5658885A, “Amidino and guanidino substituted boronic acid inhibitors of trypsin-like enzymes” (The DuPont Merck Pharmaceutical Company, priority 1994, dated 1997).
Structures can show the parent of a compound that is named as a salt.

Columns and labels:
human thrombin = target: T1, human thrombin (Homo sapiens, UniProt P00734); assay: Inhibition of thrombin hydrolysis of chromogenic substrate S2238 (Ki); assay type: biochemical; conditions: S2238, pH 7.5
T1 construct: 0.2-0.5 nM human thrombin or human factor Xa; purchased Enzyme Research Laboratories, South Bend, Ind
Procedure: (§1) The effectiveness of compounds of the present invention as inhibitors of blood coagulation proteases was determined using purified human proteases and synthetic substrates following procedures similar to those described in Kettner et al. (1990).
(§2) For these assays, the rate of enzymatic (thrombin, Factor Xa, and Factor VIIa) hydrolysis of chromogenic substrates (S2238 (H-D-Phe-Pip-Arg-pNA), S2222, and S2288, respectively; Kabi Pharmacia, Franklin, Ohio) was measured both in the absence and presence of compounds of the present invention. […] A decrease in the rate of absorbance change at 405 nm in the presence of inhibitor is indicative of enzyme inhibition. The results of this assay are expressed as inhibitory constant, Ki.
(§3) Thrombin and Xa determinations were made in 0.10M sodium phosphate buffer, pH 7.5, containing 0.20M NaCl, and 0.5% PEG 8000. VIIa determinations were made in 0.05M tris buffer, pH 7.6, containing 0.10M NaCl, 4 mM CaCl2, and 0.1% bovine serum albumin.
(§4) Reactions were allowed to go for 30 minutes and the velocities (rate of absorbance change vs time) were measured in the time frame of 25-30 minutes. The following relationship was used to calculate Ki values. [formula] where: vo is the velocity of the control in the absence of inhibitor;
(§5) vs is the velocity in the presence of inhibitor;
(§6) I is the concentration of inhibitor;
(§7) Ki is the dissociation constant of the enzyme: inhibitor complex;
(§8) S is the concentration of substrate;
(§9) Km is the Michaelis constant.

[1] = system: activated partial thromboplastin time; assay: Anticoagulant effect in vivo: prolongation of activated partial thromboplastin time of blood samples after dosing; set-up: species or system conscious dogs or anesthetized rats; conditions: 0.5 to 10 mg/kg, dogs or rats
Procedure: Arterial or venous blood was withdrawn by syringe and mixed with 1/10 volume 3.2% sodium citrate. Plasma was obtained after centrifugation and a standard clinical activated partial thromboplastin time (APTT reagent, Sigma Chemical Co., St. Louis, Mo.) determined at 37° C. in a fibrometer.

human factor VIIa = target: T2, human factor VIIa (Homo sapiens, UniProt P08709); assay: Inhibition of Factor VIIa hydrolysis of chromogenic substrate S2288 (Ki); assay type: biochemical; conditions: S2288, pH 7.6
T2 construct: 50 nM human factor VIIa (BiosPacific, Emeryville, Calif.); purchased BiosPacific, Emeryville, Calif
T2 sequence (P08709 213-466 limits assumed): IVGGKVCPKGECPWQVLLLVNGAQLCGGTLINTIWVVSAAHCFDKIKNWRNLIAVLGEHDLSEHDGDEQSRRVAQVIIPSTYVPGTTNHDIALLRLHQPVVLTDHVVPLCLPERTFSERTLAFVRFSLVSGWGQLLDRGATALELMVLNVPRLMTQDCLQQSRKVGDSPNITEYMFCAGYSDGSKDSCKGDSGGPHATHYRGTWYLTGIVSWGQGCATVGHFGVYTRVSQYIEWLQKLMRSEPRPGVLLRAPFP
T2 sequence (P08709 61-212 limits assumed): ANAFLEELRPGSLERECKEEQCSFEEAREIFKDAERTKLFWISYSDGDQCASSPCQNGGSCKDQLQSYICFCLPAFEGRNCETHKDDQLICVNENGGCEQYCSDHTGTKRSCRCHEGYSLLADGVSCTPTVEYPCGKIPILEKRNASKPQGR
Procedure: as §1, §2, §3, §4, §5, §6, §7, §8, §9

human factor Xa = target: T3, human factor Xa (Homo sapiens, UniProt P00742); assay: Inhibition of Factor Xa hydrolysis of chromogenic substrate S2222 (Ki); assay type: biochemical; conditions: S2222, pH 7.5
T3 construct: 0.2-0.5 nM human thrombin or human factor Xa; purchased Enzyme Research Laboratories, South Bend, Ind
Procedure: as §1, §2, §3, §4, §5, §6, §7, §8, §9

thrombin clotting times = assay: Thrombin clotting time, concentration for 2-fold increase; assay type: biochemical; conditions: 2-fold increase of thrombin clotting time

T3 sequence (P00742 235-488 limits assumed): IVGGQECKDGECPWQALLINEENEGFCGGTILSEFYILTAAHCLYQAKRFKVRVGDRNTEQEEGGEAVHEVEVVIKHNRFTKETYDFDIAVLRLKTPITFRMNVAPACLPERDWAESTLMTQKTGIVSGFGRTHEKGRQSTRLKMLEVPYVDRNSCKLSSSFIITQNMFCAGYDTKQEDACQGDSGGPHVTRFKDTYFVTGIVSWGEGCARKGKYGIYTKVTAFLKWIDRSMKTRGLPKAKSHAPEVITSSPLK
T3 sequence (P00742 41-179 limits assumed): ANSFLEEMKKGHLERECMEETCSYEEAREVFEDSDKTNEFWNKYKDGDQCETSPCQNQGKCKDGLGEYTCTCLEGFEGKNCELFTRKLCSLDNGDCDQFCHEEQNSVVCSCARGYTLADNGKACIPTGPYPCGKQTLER

In the case of `CCCCS(=O)(=O)NC(Cc1ccccc1)C(=O)N1CCCC1C(=O)NC(CCCNC=N)B(O)O.Cl` (stereo not drawn) [Example 66, CH3 (CH2)3 SO2 --(D)Phe--Pro--boroOrn(CH=NH)--OH.HCl], the Ki (human thrombin) is reported as < 500 nM and the “anticoagulant response (at least doubling of activated partial thromboplastin time vs. pre-dose)” value ([1]; oral dosing) is reported as “effective”.

In the case of “Boc--(D)Phe--Pro--boroGly[(CH2)3 --ONH2 ]--OH.HCl [Example 102]”, the Ki (human factor VIIa) is reported as < 500 nM, the Ki (human thrombin) is reported as < 500 nM and the Ki (human factor Xa) is reported as < 50000 nM.

`CC(=O)NC(Cc1ccccc1)C(=O)N1CCCC1C(=O)NC(CCCNC=N)B1OC2CC3CC(C3(C)C)C2(C)O1.Cl` (stereo not drawn) [Example 3, Ac--(D)Phe--Pro--boroOrn(CH=NH)]--C10 H16.HCl] was tested, and the Ki (human thrombin) was < 500 nM and the “concentration that increased thrombin clotting times 2-fold” value (thrombin clotting times) was 0.25 µM.

In the case of `N=CNCCCC(NC(=O)C1CCCN1C(=O)CCc1ccccc1)B(O)O` (stereo not drawn) [Example 48], the Ki (human factor VIIa) is reported as < 500 nM, the Ki (human thrombin) is reported as < 500 nM and the Ki (human factor Xa) is reported as < 50000 nM.

For `CC(C)(C)OC(=O)NC(Cc1cccs1)C(=O)N1CCCC1C(=O)NC(Cc1cccc(C#N)c1)B1OC2CC3CC(C3(C)C)C2(C)O1` (stereo not drawn) [Example 36, Boc--(D)2-Thienylalanine-Pro--boroPhe(m-CN)--C10 H16], the Ki (human factor VIIa) was < 500 nM, the Ki (human thrombin) was < 500 nM and the Ki (human factor Xa) was < 500 nM.

For `CC1(C)C2CC3OB(C(Cc4cccc(C#N)c4)NC(=O)[C@@H]4CCCN4C(=O)[C@H](N)Cc4ccccn4)OC3(C)C1C2` (stereo partly drawn) [Example 37, H--(D)2-Pyridylalanine-Pro--boroPhe(m-CN)--C10 H16.HCl], the Ki (human factor VIIa) was < 500 nM, the Ki (human thrombin) was < 500 nM and the Ki (human factor Xa) was < 50000 nM.

In the case of `CC1(C)C2CC3OB(C(Cc4cccc(C#N)c4)NC(=O)[C@@H]4CCCN4C(=O)[C@H](N)Cc4cccs4)OC3(C)C1C2` (stereo partly drawn) [Example 38, H--(D)2-Thienylalanine-Pro--boroPhe(m-CN)--C10 H16.HCl], the Ki (human factor VIIa) is reported as < 500 nM, the Ki (human thrombin) is reported as < 500 nM and the Ki (human factor Xa) is reported as < 50000 nM.

`CC1(C)C2CC3OB(C(Cc4cccc(C#N)c4)NC(=O)C4CCCN4C(=O)C(N)Cc4cccnc4)OC3(C)C1C2` (stereo not drawn) [Example 30, H--(D)3-Pyridylalanine-Pro--boroPhe(m-CN)--C10 H16.HCl] was tested, and the Ki (human thrombin) was < 500 nM and the Ki (human factor Xa) was < 500 nM.

`COCCCC(NC(=O)[C@@H]1CCCN1C(=O)[C@@H](Cc1ccccc1)N(C)C)B1OC2CC3CC(C3(C)C)C2(C)O1` (stereo partly drawn) [Example 141, N,N-dimethyl-(D)--Phe--Pro--boroGly[(CH2)3 --OCH3]--C10 H16] was tested, and the Ki (human factor VIIa) was < 50000 nM, the Ki (human thrombin) was < 500 nM and the Ki (human factor Xa) was < 50000 nM.

For `CC(=O)NCCCCC(NC(=O)C1CCCN1C(=O)CCc1ccccc1)B1OC2CC3CC(C3(C)C)C2(C)O1` (stereo not drawn) [Example 136, Hydrocinnamoyl-ProboroGly[(CH2)4 --NH--Acetyl]C10 H16], the Ki (human factor VIIa) was < 50000 nM, the Ki (human thrombin) was < 500 nM and the Ki (human factor Xa) was < 50000 nM.

With `CC1(C)C2CC3OB(C(Cc4cccc(C#N)c4)NC(=O)C4CCCN4C(=O)C(Cc4cccs4)NS(C)(=O)=O)OC3(C)C1C2` (stereo not drawn) [Example 40, Ms--(D)2-Thienylalanine-Pro--boroPhe(m-CN)--C10 H16] the Ki (human factor VIIa) was < 500 nM, the Ki (human thrombin) was < 500 nM and the Ki (human factor Xa) was < 500 nM.

In the case of `COCCCC(NC(=O)C1CCCN1C(=O)C(Cc1ccccc1)NCC(=O)O)B1OC2CC3CC(C3(C)C)C2(C)O1` (stereo not drawn) [Example 140, HO2 CCH2 --(D)--Phe--Pro--boroGly[(CH2)3 --OCH3]--C10 H16], the Ki (human factor VIIa) is reported as < 50000 nM and the Ki (human thrombin) is reported as < 500 nM.

For `CC(C)(C)OC(=O)N[C@H](Cc1cccnc1)C(=O)N1CCCC1C(=O)NC(Cc1cccc(C#N)c1)B1OC2CC3CC(C3(C)C)C2(C)O1` (stereo partly drawn) [Example 28, Boc--(D)3-Pyridylalanine-Pro--boroPhe--(m-CN)-C10 H16], the Ki (human thrombin) was < 500 nM and the Ki (human factor Xa) was < 500 nM.

For `CC(C)(C)OC(=O)N[C@H](Cc1ccccn1)C(=O)N1CCCC1C(=O)NC(Cc1cccc(C#N)c1)B1OC2CC3CC(C3(C)C)C2(C)O1` (stereo partly drawn) [Example 34, Boc--(D)2-Pyridylalanine-Pro--boroPhe(m-CN)--C10 H16], the Ki (human factor VIIa) was < 500 nM, the Ki (human thrombin) was < 500 nM and the Ki (human factor Xa) was < 500 nM.

“Ac--(D)Phe--Pro--boroOrn(CH=NH)]--OH.HCl [Example 4]” was tested, and the Ki (human factor VIIa) was < 500 nM, the Ki (human thrombin) was < 500 nM and the “anticoagulant response (at least doubling of activated partial thromboplastin time vs. pre-dose)” value ([1]; i.v. dosing) was “effective”. For the same compound, the “anticoagulant response (at least doubling of activated partial thromboplastin time vs. pre-dose)” value ([1]; oral dosing) was “effective” and the Ki (human factor Xa) was < 500 nM.
